Measured values from patent US9107851B2, “Solventless mixing process for coating pharmaceutical ingredients” (New Jersey Institute of Technology, priority 2012, dated 2015).

Assay: USP dissolution test (Apparatus II paddles, pH 7.2 phosphate buffer with SDS, 37° C.)
Assay type: physicochemical
Details: for Time to dissolve: uncoated; for Initial dissolution rate (—): grinding pressure 0
Description: The coated API core particles have the taste of the API masked to allow easy swallowing or even chewing by patients. The API is still released from the coated API core particles in relatively short time. A USP Dissolution Test may be used to assess the release of API from the coated API core particles. The dissolution test employs a media of 7.2 pH phosphate buffer solution with 0.4 g/L sodium dodecyl sulfate (SDS, used to ensure wetting of the powders) at 37° C. and is carried out in USP Apparatus II (paddles) rotating at 50 RPM. The percentage of active pharmaceutical ingredient that is dissolved is measured over time. The coated API core particles can release the API in 30 minutes or less as measured in the USP Dissolution test, or in 20 minutes or less as measured in the USP dissolution test.

Which Time to dissolve (Example 23: 45 μm-63 μm) does the source give for O=C1O[C@H]([C@@H](O)CO)C(O)=C1O [ascorbic acid] here?
The Time to dissolve was 10 s.

What about the Time to dissolve (Example 23: 90 μm-125 μm) of the same molecule?
The Time to dissolve was “less than 20 seconds”.

And the Time to dissolve (Example 23: 150 μm-250 μm)?
The Time to dissolve was “less than 60 seconds”.

And the Time to dissolve (Example 23: 425 μm-500 μm)?
Its Time to dissolve is “less than 60 seconds”.

And the “Initial dissolution rate (—)” value (ascorbic acid initial d50 93 μm)?
The value was 9.16.

And the “Initial dissolution rate (—)” value (ascorbic acid initial d50 192 μm)?
The value was 7.764.

And the “Initial dissolution rate (—)” value (ascorbic acid initial d50 341 μm)?
The value was 4.053.
